Assay results reported in patent US20150119395A1, “NOVEL TRIAZOLE COMPOUNDS THAT MODULATE HSP90 ACTIVITY” (SYNTA PHARMACEUTICALS CORP., priority 2012, published 2015).

The compounds below were run on Her2 (assay: Her2 degradation in BT-474 cells, in-cell western (ICW), Method 2). Conditions: BT-474 cells, 24 hours, Her2 signal normalized to DRAQ5; read-out: Her2 IC50 range of compounds of the invention for inhibition of Hsp90.
Assay type: cell-based, human
Procedure: Human BT474 (HTB-20), SK-BR-3 (HTB-30) and MCF-7 breast carcinoma cells (HTB-22) from American Type Culture Collection, VA, USA were grown in Dulbecco's modified Eagle's medium with 4 mM L-glutamine and antibiotics (100 IU/ml penicillin and 100 μg/ml streptomycine; GibcoBRL). To obtain exponential cell growth, cells were trypsinized, counted and seeded at a cell density of 0.5×10^6 cells/ml regularly, every 3 days. All experiments were performed on day 1 after cell passage.
BT-474 cells were plated in the interior 60 wells of a 96 well black clear bottom plate (20,000 cells/well) in DMEM medium, with DMEM media in the surrounding 36 wells, and incubated at 37° C. with 5% CO2 overnight. On the second day, concentration response curve source plates were produced (10 point, 3-fold dilution of compounds in DMSO) followed by a 1:30 dilution in an intermediate dilution plate containing DMEM. Compound was transferred from the intermediate plate to the cell plate at a dilution of 1:10. The cells were incubated at 37° C. with 5% CO2 for 24 hours.
Cells were fixed in 4% phosphate buffered paraformaldehyde for 30 minutes at room temperature and then permeabilized by washing five times with 0.1% Triton X-100 in PBS for 5 minutes at room temperature on a shaker. Cells were blocked with Odyssey Blocking Buffer (LI-COR, #927-40000) on a shaker at room temperature for 1.5 hours followed by incubation with Her2 antibody (CST, #2165) diluted 1:400 in blocking buffer overnight on a shaker at 4° C. Cells were washed five times with 0.1% Tween-20 in PBS for 5 minutes at room temperature on a shaker and incubated with fluorescently labeled secondary antibody (LI-COR, #926-32211) diluted 1:1000 in blocking buffer, and DRAQ5 nuclear stain (Biostatus Limited, #DRAQ5) diluted 1:10,000, at room temperature on a shaker for 1 hour. Cells were washed 5 times with 0.1% Tween-20 in PBS for 5 minutes at room temperature on a shaker and imaged on a LI-COR Odyssey imaging station. The raw data was normalized to DRAQ5 and the Her2 EC50 were calculated using XLfit.

Question: Which IC50 does the source give for `CC(C)c1cc(-c2nnc(-c3cccc(O)c3)n2-c2ccc(CN3CCN(C)CC3)cc2)c(O)cc1O` [Compound 7, 4-(5-(3-hydroxyphenyl)-4-(4-((4-methylpiperazin-1-yl)methyl)phenyl)-4H-1,2,4-triazol-3-yl)-6-isopropylbenzene-1,3-diol] here?
Answer: 0.123 µM

Question: For `CC(C)c1cc(-c2nnc(-c3ccncc3)n2-c2ccc(N3CCN(C)CC3)cc2)c(O)cc1O` [Compound 2, 4-isopropyl-6-(4-(4-(4-methylpiperazin-1-yl)phenyl)-5-(pyridin-4-yl)-4H-1,2,4-triazol-3-yl)benzene-1,3-diol], which IC50 is on record?
Answer: 2.28 µM

Question: Which IC50 does the source give for `CC(C)c1cc(-c2nnc(-c3ccccc3O)n2-c2ccc(N3CCN(C)CC3)cc2)c(O)cc1O` [Compound 3, 4-(5-(2-hydroxyphenyl)-4-(4-(4-methylpiperazin-1-yl)phenyl)-4H-1,2,4-triazol-3-yl)-6-isopropylbenzene-1,3-diol] here?
Answer: 5.16 µM

Question: Which IC50 does the source give for `CC(C)c1cc(-c2nnc(-c3cc(C(C)C)c(O)cc3O)n2-c2ccc(N3CCN(C)CC3)cc2)c(O)cc1O` [Compound 1, 6,6′-(4-(4-(4-methylpiperazin-1-yl)phenyl)-4H-1,2,4-triazole-3,5-diyl)bis(4-isopropylbenzene-1,3-diol)] here?
Answer: 3.5 µM

Question: How did the IC50 turn out when `CC(C)c1cc(-c2nnc(-c3cccc(O)c3)n2-c2ccc(N3CCN(C)CC3)cc2)c(O)cc1O` [Compound 4, 4-(5-(3-hydroxyphenyl)-4-(4-(4-methylpiperazin-1-yl)phenyl)-4H-1,2,4-triazol-3-yl)-6-isopropylbenzene-1,3-diol] was run?
Answer: 0.543 µM

Question: For `CC(C)c1cc(-c2nnc(-c3ccccn3)n2-c2ccc(N3CCN(C)CC3)cc2)c(O)cc1O` [Compound 5, 4-isopropyl-6-(4-(4-(4-methylpiperazin-1-yl)phenyl)-5-(pyridin-2-yl)-4H-1,2,4-triazol-3-yl)benzene-1,3-diol], which IC50 is on record?
Answer: 0.543 µM

Question: With `CC(C)c1cc(-c2nnc(-c3cnccn3)n2-c2ccc(N3CCN(C)CC3)cc2)c(O)cc1O` [Compound 6, 4-isopropyl-6-(4-(4-(4-methylpiperazin-1-yl)phenyl)-5-(pyrazin-2-yl)-4H-1,2,4-triazol-3-yl)benzene-1,3-diol] as the compound, how does the IC50 read?
Answer: 3.41 µM

Question: For `CC(C)c1cc(-c2nnc(-c3cccc(O)c3)n2-c2ccc(N3CCOCC3)cc2)c(O)cc1O` [Compound 8, 4-(5-(3-hydroxyphenyl)-4-(4-morpholinophenyl)-4H-1,2,4-triazol-3-yl)-6-isopropylbenzene-1,3-diol], which IC50 is on record?
Answer: 0.143 µM

Same assay, conditions: Table 3; read-out: EC50 range for Her2 degradation

Question: For `CCN1CCN(Cc2ccc(-n3c(-c4cccnc4)nnc3-c3cc(C(C)C)c(O)cc3O)c(Cl)c2)CC1` [Compound 19, 4-(4-(2-chloro-4-((4-ethylpiperazin-1-yl)methyl)phenyl)-5-(pyridin-3-yl)-4H-1,2,4-triazol-3-yl)-6-isopropylbenzene-1,3-diol], which EC50 is on record?
Answer: 0.052 µM

Question: How did the EC50 turn out when `CC(C)c1cc(-c2ccc(-c3cccnc3)n2-c2ccc(N3CCOCC3)cc2)c(O)cc1O` [Compound 21, 4-isopropyl-6-(1-(4-morpholinophenyl)-5-(pyridin-3-yl)-1H-pyrrol-2-yl)benzene-1,3-diol] was run?
Answer: 0.04 µM

Question: Which EC50 does the source give for `CC(C)c1cc(-c2nnc(-c3cc4ccccc4[nH]3)n2-c2ccccc2)c(O)cc1O` [Compound 14, 4-(5-(1H-indol-2-yl)-4-phenyl-4H-1,2,4-triazol-3-yl)-6-isopropylbenzene-1,3-diol] here?
Answer: 0.025 µM

Question: Which EC50 does the source give for `CC(C)c1cc(-c2nnc(-c3cccc(O)c3)n2-c2ccc(CN3CCOCC3)cc2)c(O)cc1O` [Compound 10, 4-(5-(3-hydroxyphenyl)-4-(4-(morpholinomethyl)phenyl)-4H-1,2,4-triazol-3-yl)-6-isopropylbenzene-1,3-diol] here?
Answer: 0.06 µM

Question: With `COc1ccc(-c2cnc(-c3cc(C(C)C)c(O)cc3O)n2-c2ccc(N3CCOCC3)nc2)cc1` [Compound 23, 4-isopropyl-6-(5-(4-methoxyphenyl)-1-(6-morpholinopyridin-3-yl)-1H-imidazol-2-yl)benzene-1,3-diol] as the compound, how does the EC50 read?
Answer: < 0.2 µM

Question: For `CC(C)c1cc(-c2nnc(-c3cccnc3)n2-c2ccc(CN3CCOCC3)cc2)c(O)cc1O` [Compound 13, 4-isopropyl-6-(4-(4-(morpholinomethyl)phenyl)-5-(pyridin-3-yl)-4H-1,2,4-triazol-3-yl)benzene-1,3-diol], which EC50 is on record?
Answer: 0.1 µM

Question: With `CC(C)c1cc(-c2nnc(-c3cccnc3)n2-c2ccc(N3CCOCC3)cc2)c(O)cc1O` [Compound 17, 4-isopropyl-6-(4-(4-morpholinophenyl)-5-(pyridin-3-yl)-4H-1,2,4-triazol-3-yl)benzene-1,3-diol] as the compound, how does the EC50 read?
Answer: 0.038 µM

Question: How did the EC50 turn out when `CC(C)c1cc(-c2nnc(-c3cccc(O)c3)n2-c2cccnc2)c(O)cc1O` [Compound 11, 4-(5-(3-hydroxyphenyl)-4-(pyridin-3-yl)-4H-1,2,4-triazol-3-yl)-6-isopropylbenzene-1,3-diol] was run?
Answer: 0.3 µM

Question: With `COc1ccc(-c2cnc(-c3cc(C(C)C)c(O)cc3O)n2-c2ccc(CN3CCN(C)CC3)cc2)cc1` [Compound 24, 4-isopropyl-6-(5-(4-methoxyphenyl)-1-(4-((4-methylpiperazin-1-yl)methyl)phenyl)-1H-imidazol-2-yl)benzene-1,3-diol] as the compound, how does the EC50 read?
Answer: < 0.2 µM

Question: With `COc1ccc(-c2[nH]nc(-c3cc(C(C)C)c(O)cc3O)c2-c2ccc(OC)cc2)cc1` [Compound 22, 4-(4,5-bis(4-methoxyphenyl)-1H-pyrazol-3-yl)-6-isopropylbenzene-1,3-diol] as the compound, how does the EC50 read?
Answer: > 0.2 µM

Question: For `CC(C)c1cc(-c2nnc(-c3cccnc3)n2-c2ccc(CN3CCN(C)CC3)cc2)c(O)cc1O` [Compound 16, 4-isopropyl-6-(4-(4-((4-methylpiperazin-1-yl)methyl)phenyl)-5-(pyridin-3-yl)-4H-1,2,4-triazol-3-yl)benzene-1,3-diol], which EC50 is on record?
Answer: 0.018 µM

Question: `CC(C)c1cc(-c2nnc(-c3cccnc3)n2-c2cccnc2)c(O)cc1O` [Compound 12, 4-(4,5-di(pyridin-3-yl)-4H-1,2,4-triazol-3-yl)-6-isopropylbenzene-1,3-diol] was tested. Which EC50 did it give?
Answer: 1 µM

Question: `COc1cc(O)c(-c2nnc(-c3cccnc3)n2-c2ccc(CN3CCN(C)CC3)cc2)cc1C(C)C` [Compound 20, 4-isopropyl-5-methoxy-2-(4-(4-((4-methylpiperazin-1-yl)methyl)phenyl)-5-(pyridin-3-yl)-4H-1,2,4-triazol-3-yl)phenol] was tested. Which EC50 did it give?
Answer: 2.09 µM

Question: How did the EC50 turn out when `COc1cc(O)c(-c2nnc(-c3cccnc3)n2-c2ccc(CN3CCOCC3)cc2Cl)cc1C(C)C` [Compound 18, 2-(4-(2-chloro-4-(morpholinomethyl)phenyl)-5-(pyridin-3-yl)-4H-1,2,4-triazol-3-yl)-4-isopropyl-5-methoxyphenol] was run?
Answer: 5 µM

Question: `CC(C)c1cc(-c2nnc(-c3cccnc3)n2-c2ccccc2)c(O)cc1O` [Compound 15, 4-isopropyl-6-(4-phenyl-5-(pyridin-3-yl)-4H-1,2,4-triazol-3-yl)benzene-1,3-diol] was tested. Which EC50 did it give?
Answer: < 0.2 µM

Question: For `CC(C)c1cc(-c2nnc(-c3cccc(O)c3)n2-c2ccccc2)c(O)cc1O` [Compound 9, 4-(5-(3-hydroxyphenyl)-4-phenyl-4H-1,2,4-triazol-3-yl)-6-isopropylbenzene-1,3-diol], which EC50 is on record?
Answer: < 0.2 µM
